One assay relates to kainic acid receptors. In words: kainic acid-evoked responses of spinal dorsal horn neurons, microiontophoresis. Format: in vivo. The settings on record: anesthetized rat, iontophoresis, mean±SD, n = 16. As for the experimental part: (§1) In another set of experiments, effects of calmidazolium were investigated on the responses of dorsal horn neurons evoked by NMDA and kainic acid agonists of different glutamate receptors, well characterized transducers of pain signals, more centrally. Neuronal firing responses to iontophoresed NMDA or kainic acid were typically fast in onset and short in duration (Fig. 8). Ejection currents for these excitatory agents were delivered alternately in every 2 min and were selected to produce a maximal peak height of 50–70 spikes/s which corresponded to 300–400 action potentials per stimulation epoch. Iontophoretic application of calmidazolium produced significant reduction in responses to both NMDA and kainic acid. Maximal inhibition of NMDA- or kainic acid -evoked responses were reached 15–20 min after calmidazolium application and remained so during the rest of the 2 hour long experiment. […]
(§2) Extracellular single-neuron recordings were made in chloral hydrate-anesthetized ([…] initial dose, i.p., with supplemental doses as required) male Wistar rats weighing between 350–450 g. […] Rectal temperature as well as the temperature of the mineral oil were monitored with temperature probes and kept at 37°C by a warm water-heated blanket beneath the rat and an infrared heat lamp from above. […]

The test system of a further assay is formalin-induced pain. The arrangement: method as in PMID 8883861. The settings on record: rat, intrathecal; cited from earlier work.
A further assay addresses T1, rat TRPV1 (Rattus norvegicus, UniProt O35433).
T1 construct: expressed in transfected cells
Nature of the assay: capsaicin-induced 45Ca2+-uptake in TRPV1-NIH3T3 cells. Format: cell-based. As for the experimental part: Assays were carried out in 2×10^−5 M extracellular Ca^2+ in 96 well plate formats at room temperature (22°C) for 10 min with robotic liquid handling. […] We hypothesized that calmodulin antagonists and some registered drugs may exert their blocking effect with another mechanisms on TRPV1 and not necessarily on their conventional target.
TRPV1-NIH3T3 mouse fibroblast line, ectopically expressing the rat TRPV1 was established previously.
Vanilloid agonist inducible calcium transport was assayed in adherent cell lines ectopically expressing the C-terminally ε-tagged rat TRPV1 (3×10^4 cells/well) and primary cultures prepared from embryonic DRG, seeded in poly-D lysine/collagen coated 96 well plates. […] The previously established cell lines and standardized DRG cultures were extensively characterized for functional cell-based TRPV1 studies [1]–[4]. Immediately before the transport assay, cells were adapted to room temperature (20°C) for 5 min in HCM. ^45Ca^2+-uptake was performed for 10 min at 20°C in HCM using 0.1 µCi ^45Ca^2+ as radioactive tracer in a 100 µl final volume. To stop ^45Ca^2+-uptake, cells were rapidly changed back into 0.2 ml HCM, washed 4 additional times with 0.2 ml HCM, and then lysed in 80 µl/well RIPA buffer (50 mM Tris-HCl, pH 7.5, 150 mM NaCl, 1% Triton X-100, 0.5% deoxycholate, 0.1% SDS, 5 mM EDTA) for 30 min [1]–[4]. Aliquots of the solubilized cell extracts were mixed with 120 µl Microscint-40 and counted in a 96 well plate liquid scintillation counter (TopCount-NXT, Packard).

The subject of the next assay is NMDA receptors. In words: NMDA-evoked responses of spinal dorsal horn neurons, microiontophoresis. The class given is in vivo. The settings on record: anesthetized rat, iontophoresis, mean±SD, n = 16. As for the experimental part:
as §1, §2

[1] abbreviates: increasing concentrations of capsaicin.

Where “and” joins values, the source holds several entries; their conditions need not be identical. Equal values may be shown once.

T1 sequence (O35433 whole entry): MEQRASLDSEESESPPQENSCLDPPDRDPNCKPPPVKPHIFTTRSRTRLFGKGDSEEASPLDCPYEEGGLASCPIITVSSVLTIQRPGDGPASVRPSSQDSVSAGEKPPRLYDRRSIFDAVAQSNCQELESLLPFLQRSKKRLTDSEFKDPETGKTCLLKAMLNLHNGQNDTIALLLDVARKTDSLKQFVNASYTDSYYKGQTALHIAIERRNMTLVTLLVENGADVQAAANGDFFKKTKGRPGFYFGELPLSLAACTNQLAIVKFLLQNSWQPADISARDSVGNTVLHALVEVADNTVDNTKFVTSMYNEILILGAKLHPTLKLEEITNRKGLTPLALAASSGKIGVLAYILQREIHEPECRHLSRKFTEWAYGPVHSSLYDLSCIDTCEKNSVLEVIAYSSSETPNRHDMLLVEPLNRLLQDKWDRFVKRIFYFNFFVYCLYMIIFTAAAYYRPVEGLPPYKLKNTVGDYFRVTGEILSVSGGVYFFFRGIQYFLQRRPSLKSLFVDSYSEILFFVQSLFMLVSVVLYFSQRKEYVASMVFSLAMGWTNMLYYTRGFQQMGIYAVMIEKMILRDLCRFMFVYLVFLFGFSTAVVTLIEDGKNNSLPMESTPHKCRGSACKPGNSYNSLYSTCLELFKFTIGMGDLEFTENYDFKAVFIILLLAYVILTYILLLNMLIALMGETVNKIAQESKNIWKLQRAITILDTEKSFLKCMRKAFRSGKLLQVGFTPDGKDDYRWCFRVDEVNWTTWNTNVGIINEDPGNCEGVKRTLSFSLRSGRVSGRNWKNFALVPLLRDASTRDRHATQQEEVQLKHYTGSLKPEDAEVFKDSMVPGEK

In the case of `Clc1ccc(C(c2ccc(Cl)cc2)n2cc[n+](CC(OCc3ccc(Cl)cc3Cl)c3ccc(Cl)cc3Cl)c2)cc1` (stereo not shown) [calmidazolium], in the assay with kainic acid receptors, the “responses to kainic acid, % of pre-calmidazolium baseline control” value is listed as 47±20%. For the same molecule, in the assay on formalin-induced pain, the “analgesia in both phases of formalin tests” value is reported as “analgesic”. In addition, at rat TRPV1 (2 µM capsaicin), the “antagonist activity on capsaicin-induced Ca2+-uptake (in words)” value is “full antagonists”. Further, the IC50 (commonly the midpoint of a concentration-inhibition curve) at rat TRPV1 (2 µM capsaicin, 10 min, 2×10^−5 M extracellular Ca2+, room temperature, read-out: IC50, inhibition of capsaicin-induced 45Ca2+-uptake) was 7 µM and ~2 µM. In addition, at rat TRPV1 (setting [1]), the “concentration above which Ca2+-transport was almost completely abolished” value was more than 2.5 µM and the “kinetics of Ca2+-transport inhibition” value was “decreased Vmax”. Besides, in the assay on NMDA receptors, the “responses to NMDA, % of pre-calmidazolium baseline control” value is 13±12%.
